According to patent publication US20240166703A1, “ANTI-INFLAMMATORY PEPTIDE AND METHOD OF USE THEREOF” (The Regents of the University of California, priority 2021, published 2024):
“Also recorded” adds a separate entry of the source.

Assays:
[1] = system: constitutive nuclear transcription factor Oct1; assay: EMSA of Oct1 binding to its probe, HeLa nuclear extracts; format: cell-based, human; conditions: peptide 10-50 μM
[2] = system: canonical NF-κB signaling through IKK2 in RAW 264.7 murine macrophage cells; assay: Western blot of canonical NF-κB signaling in LPS-treated RAW 264.7 cells; format: cell-based; conditions: 100 ng/mL LPS for 2 hours
Experimental: To prepare nuclear and cytoplasmic protein extracts, HeLa, MEF, and RAW 264.7 cells were lysed in buffer containing 4.3 mM Na2HPO4, 1.47 mM KH2PO4 pH 7.4, 137 mM NaCl, 2.7 mM KCl, 1 mM DTT, 0.05% (v/v) NP-40, and 1×protease inhibitor cocktail for 10 minutes on ice and spun at 3,000 rpm at 4° C. for 10 minutes. The supernatant containing the cytoplasmic fraction was quantified by Bio-Rad protein assay to determine the total amount of protein. Pellets were resuspended in nuclear extraction buffer (25 mM Tris-HCl pH 7.5, 420 mM NaCl, 10% glycerol, 0.2 mM EDTA, 1 mM DTT, 0.5 mM PMSF, 1×protease inhibitor cocktail) once and then subjected to three lysis cycles (freeze at −80° C. and thaw at 37° C.). Finally, samples were centrifuged at 13,000 rpm at 4° C. for 20 minutes, and supernatants containing the soluble nuclear fraction were measured by the Bio-Rad protein assay to determine the total amount of protein. Nuclear and cytoplasmic extracts were aliquoted and kept at −80° C.
HeLa, MEF, RAW 264.7 cells were cultured in Dulbecco's MEM containing 10% fetal bovine […] supplemented with penicillin and streptomycin, at 37° C. in a humidity incubator with 5% CO2. RAW 264.7 cells were seeded and allowed to adhere for 24 hours then treated with NEMO^ActPep or NEMO^ActPep 6G at different concentrations 60 min before the LPS challenge (100 ng/ml). After 2 hours, nuclear and cytoplasmic extracts were collected. HeLa and MEF cells seeded for 24 hours then treated with NEMO^ActPep or NEMO^ActPep 6G at different concentrations 60 min before the TNF-α challenge (10 ng/ml) for 15 minutes and then nuclear and cytoplasmic extracts were collected. MEF cells were treated with NEMO^ActPep or NEMO^ActPep 6G at different concentrations 1 hour before the LTβR challenge (300 ng/ml). After 24 hours whole cell extracts were collected and aliquoted and kept at −80° C. for further experiments.
Equivalent amounts of protein from cell extracts was separated by SDS-PAGE and transferred to polyvinylidene fluoride (PVDF) membranes (Millipore, Bedford, MA, USA). The membrane was blocked with 5% bovine serum albumin (BSA) for 1 hour at room temperature and then the membrane was incubated with the primary antibodies overnight at 4° C. Antibodies for IKK2, His, HA, Myc, GST, Ubiquitin, IκBα, phospho-IKK2, p65/ReIA, p84, γ-Actin, p100/52, phospho-ERK, phospho-JNK, phospho-p38, ERK, JNK, and p38 were used for detecting multiple specific protein targets. After binding of an appropriate secondary antibody coupled to horseradish peroxidase, the immunoreactive bands were visualized by enhanced chemiluminescence substrate.
It was then tested if the observed effect is universal across species and cell types. The effect of TAT-NEMO^ActPep was tested in RAW 264.7 murine macrophage cells treated with 100 ng/mL purified bacterial lipopolysaccharide (LPS) for 2 hours. Again, NF-κB DNA binding and ReIA subunit nuclear localization were both inhibited as were phosphorylation of the IKK2 activation loop and degradation of IκBα. […] The effect of TAT-NEMO^ActPep on NF-κB DNA binding was also analyzed in MEF cells by EMSA.

[3] = system: NF-κB activation in bone marrow-derived macrophage (BMDM) cells; assay: EMSA of NF-κB activation in LPS-treated BMDM cells; format: cell-based, C57BL/6J mice; conditions: 50 μM peptide pre-incubation
Experimental: Electrophoretic mobility shift assay (EMSA) was performed using recombinant full length NF-κB ReIA homodimer as a positive control as previously described (45). Briefly, Ig-κB probe was radiolabeled with ^32P-γ-ATP (6,000 Ci/mmol; 10 μCi/μL) and incubated with nuclear lysates for 20 minutes at room temperature in binding buffer (10 mM Tris-HCl pH 7.5, 10% (v/v) glycerol, 1% (v/v) NP-40, 1 mM EDTA, and 0.1 mg/mL salmon sperm DNA). Samples separated in 4% nondenaturing polyacrylamide gels in TGE buffer (24.8 mM Tris base, 190 mM glycine, and 1 mM EDTA) at 200 V for 1 hour, and the gel was dried. The amount of protein in lysates was quantified by Bio-Rad protein assay. EMSA analysis with quantitative densitometry and signal intensity was quantitated using ImageJ software. All EMSA experiments were performed in triplicate.
With the approval of the UCSD and Veteran Affairs San Diego Institutional Animal Care and Use Committees (IACUC), bone marrow-derived macrophage (BMDM) cells were isolated from 6-8 weeks old C57BL/6J mice (Jackson Laboratory) followed by erythrocyte lysis with ammonium chloride, and then seeded in 12-well plates at a concentration of 1×10^6 cells/mL. Cultured cells were differentiated to macrophages with culture media containing monocyte-colony stimulating factor (M-CSF; 10 ng/mL). […]

TAT-NEMO^ActPep: HIV-1 TAT fused flexibly to human NEMO amino acids 375-391; cell permeable version of NEMO activation peptide (SEQ ID NO 2) (YGRKKRRQRRRGGLSSPLALPSQRRSPPEE)
binding of Oct1 to its probe (EMSA) [1]: not affected
ReIA subunit nuclear localization (western blot) [2]: inhibited
degradation of IκBα (western blot) [2]: inhibited
phosphorylation of the IKK2 activation loop (western blot) [2]: inhibited
NF-κB activation in response to LPS (EMSA) [3]: inhibition of NF-κB activation; also recorded: disrupts NF-κB-dependent shift of the radiolabeled probe
